From patent US20100248255A1, “NOVEL PEPTIDES” (KYOWA HAKKO KOGYO CO., LTD, priority 2005, published 2010)
Like-named read-outs stand apart in the source and are kept apart here. No end group written: not given here.

Columns and labels:
[1] = tested on: antiserum (rabbit, Peptide 7-KLH conjugate as antigen); experiment: Binding specificity of antiserum by competitive RIA with [125I]-labeled Peptide 1
Protocol: As controls, reactions that use RIA buffer instead of the antiserum to measure non-specific binding, and reactions […] that use RIA buffer instead of VGF-derived peptide solutions to measure the maximum binding level were carried out. Reactions for non-specific binding were performed in quadruplicates, and the other reactions were performed in duplicates, and for each of the reactants, the immune complex was precipitated as in the above-mentioned antibody titer measurements, and its radioactivity (cpm) was measured. The average radioactivity of non-specific binding reaction is defined as non-specific binding level N, the radioactivity value for each VGF-derived peptide addition reaction is defined as Y, and the radioactivity value of maximum binding reaction is defined as Z. The percentage ratio (B/B0) of antiserum specific binding level (B) with peptide addition to the maximum binding level (B0), was determined using the following formula.
B/B0 (%)={(Y−N)/(Z−N)}×100
Accordingly, the amount of peptide that achieves 50% B/B0, more specifically, the amount of peptide that yields 50% inhibition of the maximum binding level, was used as an indicator of the peptide binding activity to the antiserum.
The amounts of peptide/tube used for performing the measurements were 0.5, 1, 2, 4, 8, 16, 32, 64, 128, 256, 512 and 1024 fmol for Peptide 1; 1, 2, 4, 8, 16, 32, 64, 128, 256, 512 and 1024 fmol for Peptide 2; 1, 3.3, 10, 33, 100, 333, 1000, 3300, 10,000, 33,000, 100,000, 333,000 and 1,000,000 fmol for Peptide 3; and 1,000, 10,000, 100,000 and 1,000,000 fmol for Peptide 8.

[2] = tested on: cardiac cells of the apoaequorin-expressing mice; experiment: Intracellular calcium ion increase (aequorin luminescence), heart of apoaequorin-expressing mice; assay type: cell-based, mouse; conditions: for intracellular calcium concentration in cardiac cells (RLU per second): added at 25 seconds; for luminescence in the heart: organ pieces, peptide final concentrations of 1 μmol/L and of 5 μmol/L
Protocol: (§1) A heart or blood vessel is collected from transgenic mice systemically expressing apoaequorin (WO02/010371) produced by introducing an apoaequorin gene expression vector into fertilized eggs. The obtained heart or blood vessel is cut finely into pieces, suspended in a medium containing coelenterazine, and then incubated to incorporate coelenterazine into the cells to form aequorin (a complex of apoaequorin and coelenterazine). Since aequorin luminesces upon binding to intracellular calcium ions, the relative luminescence level in cells before and after addition of a medium containing the peptide or a pharmaceutically acceptable salt thereof is measured in a luminometer every second over time and is used as an indicator of intracellular calcium ion concentration. Increase in the relative luminescence level due to addition of the peptide or pharmaceutically acceptable salt thereof confirms that the peptide or pharmaceutically acceptable salt thereof has the activity to increase intracellular calcium ion concentration.
(§2) Whether Peptides 1 to 5, 9 and 10 synthesized in Example 2 have the activity of increasing intracellular calcium ion concentration was investigated using the organs of transgenic mice introduced with the apoaequorin gene and systemically expressing apoaequorin (hereinafter referred to as apoaequorin-expressing mice). In apoaequorin-expressing mouse cells, light is emitted when apoaequorin binds to a calcium ion in the presence of the luminescent substrate coelenterazine and thus the intracellular calcium ion concentration can be monitored. Patent Document (WO02/010371) discloses the method for producing apoaequorin-expressing mice, method for evaluating biologically active substances that use biological samples derived from the mice, and experimental results of evaluating biologically active peptides using the mouse organs as shown below. […] Therefore, apoaequorin-expressing mice can be used in the evaluation of the physiological activities of novel peptides.
(§3) Apoaequorin-expressing mice were produced according to the method disclosed in Reference Example 4 of Patent Document (WO02/010371). The apoaequorin-expressing mice were sacrificed, individual organs including thymus, spleen, bone, blood vessel, heart, kidney, adrenal gland, pancreas, pituitary gland, and uterus, were removed; and each of the organs was cut into small cubes of approximately 1 to 2 mm^3. Next, in 5-mL tubes (Rohren-Tubes; manufactured by Sarstedt, No. 55.476), three portions of each of the prepared organs were added to 50 μL of a 10 μmol/L solution of coelenterazine (manufactured by Molecular Probes) dissolved in RPMI 1640 medium, and these were cultured at 37° C. for three hours. After culturing, RPMI 1640 medium was added, and then Peptides 1 to 5, 9 and 10 dissolved in RPMI 1640 medium were added 25 seconds after the addition of RPMI 1640 until each peptide had final concentrations of 1 μmol/L and of 5 μmol/L, and the relative luminescence levels were measured every second immediately after the addition of RPMI 1640 medium by using a luminometer (AutoLumat LB953, manufactured by Berthold).

[3] = tested on: vascular cells of the apoaequorin-expressing mice; experiment: Intracellular calcium ion increase (aequorin luminescence), blood vessel of apoaequorin-expressing mice; assay type: cell-based, mouse; conditions: for intracellular calcium concentration in vascular cells (RLU per second): 5 μmol/L of peptide, added at 25 seconds; for luminescence in the blood vessel: organ pieces, peptide final concentrations of 1 μmol/L and of 5 μmol/L
Protocol: as §1, §2, §3

[4] = tested on: uterus; experiment: Aequorin luminescence, uterus of apoaequorin-expressing mice; assay type: cell-based, mouse; conditions: organ pieces, peptide final concentrations of 1 μmol/L and of 5 μmol/L
Text: as §2, §3

[5] = tested on: thymus; experiment: Aequorin luminescence, thymus of apoaequorin-expressing mice; assay type: cell-based, mouse; conditions: organ pieces, peptide final concentrations of 1 μmol/L and of 5 μmol/L
Text: as §2, §3

[6] = tested on: pituitary gland; experiment: Aequorin luminescence, pituitary gland of apoaequorin-expressing mice; assay type: cell-based, mouse; conditions: organ pieces, peptide final concentrations of 1 μmol/L and of 5 μmol/L
Text: as §2, §3

[7] = direct administration to the paraventricular nucleus of the hypothalamus of male rats; Non-Patent Document 6; cited from earlier work
[8] = tested on: uterus; conditions: final concentration of 1 μmol/L; reported in WO02/010371; cited from earlier work
[9] = tested on: adrenal gland; conditions: final concentration of 1 μmol/L; reported in WO02/010371; cited from earlier work
[10] = tested on: vascular cells of the apoaequorin-expressing mice; conditions: final concentration of 1 μmol/L; reported in WO02/010371; cited from earlier work
[11] = tested on: spleen; experiment: Aequorin luminescence, spleen of apoaequorin-expressing mice; assay type: cell-based, mouse; conditions: organ pieces, peptide final concentrations of 1 μmol/L and of 5 μmol/L
Text: as §2, §3

[12] = target: antiserum showing an antibody titer of 9×10^5 (rabbit antiserum raised against the conjugate between Peptide 7 and KLH); experiment: competitive RIA against [^125I]-labeled Peptide 1
[13] = non-VGF peptides at 1, 10, and 100 pmol
[14] = VGF-derived peptides, sequentially diluted

In the case of calcitonin, the “inhibition of antiserum binding to [125I]-labeled Peptide 1” value (shortened to “inhibition of antiserum binding”) [1, 13] is reported as “none of the peptides showed inhibition”.

With “Peptide 10: positions 533 to 552 of the amino acid sequence of human VGF (EEDEVYPPGPYHPFPNYIRP; synthetic Peptide 10, positions 533-552 of human VGF, C-terminal VGF-derived peptide)” the “intracellular calcium concentration in cardiac cells (RLU per second)” value ([2]; 1 μmol/L of peptide) was “increase of intracellular calcium concentration”, the “luminescence in the heart” value [2] was “luminescence was observed” and the “intracellular calcium concentration in vascular cells (RLU per second)” value [3] was “increase in the intracellular calcium concentration”. For the same molecule, the “luminescence in the blood vessel” value [3] was “luminescence was observed”.

For HYHHALPPSRHYP [Peptide 1], the “intracellular calcium concentration in cardiac cells (RLU per second)” value ([2]; 1 μmol/L of peptide) was “increase of intracellular calcium concentration”, the “luminescence in the heart” value [2] was “luminescence was observed” and the “luminescence in the uterus” value [4] was “luminescence was observed”. For the same molecule, the “luminescence in the thymus” value [5] was “luminescence was observed”, the “luminescence in the pituitary gland” value [6] was “luminescence was observed” and the “inhibition of antiserum binding” value [1, 14] was “same degree of quantity-dependent inhibition”. The “amount of peptide for 50% inhibition of the maximum binding level (50% B/B0)” value ([1]; antiserum diluted 9×10^5 folds, 4° C. for 40 hours) was 7.5 fmol.

For “PHI-27 (HADGVFTSDFSKLLGQLSAKKYLESLM; ends and bridges not checked; UniProt P01282 81-107, looked up) [non-VGF peptide]”, the “inhibition of antiserum binding” value [1, 13] was “none of the peptides showed inhibition”.

For “rat VGF (556-576): partial peptide of rat VGF, positions 556-576”, the erection inducing activity [7] is listed as “this activity was not observed”.

In the case of “rat VGF (599-617): partial peptide of rat VGF (556-617), positions 599-617 (LQEQEELENYIEHVLLHRP; UniProt P20156 599-617, looked up, fragment)”, the erection inducing activity [7] is listed as “showed an erection inducing activity”.

With `NC(=O)CC[C@@H]1NC(=O)[C@H](Cc2ccccc2)NC(=O)[C@H](Cc2ccc(O)cc2)NC(=O)[C@@H](N)CSSC[C@@H](C(=O)N2CCC[C@H]2C(=O)N[C@@H](CCCN=C(N)N)C(=O)NCC(N)=O)NC(=O)[C@H](CC(N)=O)NC1=O` [vasopressin] the “inhibition of antiserum binding” value [1, 13] was “none of the peptides showed inhibition”.

With PAMP-20 the “inhibition of antiserum binding” value [1, 13] was “none of the peptides showed inhibition”.

For “angiotensin II (DRVYIHPF) [non-VGF peptide]”, the “luminescence in the uterus” value [8] is given as “strong luminescence was observed”, the “luminescence in the adrenal glands” value [9] is given as “strong luminescence was observed” and the “luminescence in the blood vessels” value [10] is given as “strong luminescence was observed”. For the same molecule, the “inhibition of antiserum binding” value [1, 13] was “none of the peptides showed inhibition”.

For Leu-enkephalin, the “inhibition of antiserum binding” value [1, 13] was “none of the peptides showed inhibition”.

For neuromedin U-8, the “inhibition of antiserum binding” value [1, 13] was “none of the peptides showed inhibition”.

With “Peptide 4: positions 586 to 615 of human VGF; same sequence as peptide V derived from bovine VGF (AQEEAEAEERRLQEQEELENYIEHVLLRRP; synthetic Peptide 4, positions 586-615 of human VGF, C-terminal VGF-derived peptide)” the “intracellular calcium concentration in vascular cells (RLU per second)” value [3] was “increase of intracellular calcium concentration”, the “luminescence in the blood vessel” value [3] was “luminescence was observed” and the “luminescence in the thymus” value [5] was “luminescence was observed”. The “luminescence in the pituitary gland” value [6] was “luminescence was observed” and the “luminescence in the spleen” value [11] was “luminescence was observed”.

With corticotropin-releasing factor the “inhibition of antiserum binding” value [1, 13] was “none of the peptides showed inhibition”.

In the case of “rat VGF (588-617): partial peptide of rat VGF (556-617), positions 588-617 (AQEEADAEERRLQEQEELENYIEHVLLHRP; UniProt P20156 588-617, looked up, fragment)”, the erection inducing activity [7] is given as “showed an erection inducing activity”.

For “Peptide 9: positions 485 to 503 of the amino acid sequence of human VGF (NAPPEPVPPPRAAPAPTHV; synthetic Peptide 9, positions 485-503 of human VGF, C-terminal VGF-derived peptide)”, the “intracellular calcium concentration in vascular cells (RLU per second)” value [3] was “increase of intracellular calcium concentration” and the “luminescence in the blood vessel” value [3] was “luminescence was observed”.

With substance K the “inhibition of antiserum binding” value [1, 13] was “none of the peptides showed inhibition”.

In the case of “Met-enkephalin-Arg-Gly-Leu (YGGFMRGL) [non-VGF peptide]”, the “inhibition of antiserum binding” value [1, 13] is reported as “none of the peptides showed inhibition”.

In the case of adrenomedulin, the “inhibition of antiserum binding” value [1, 13] is reported as “none of the peptides showed inhibition”.

In the case of “rat VGF (577-617): partial peptide of rat VGF (556-617), positions 577-617 (HHPDLEAQARRAQEEADAEERRLQEQEELENYIEHVLLHRP; UniProt P20156 577-617, looked up, fragment)”, the erection inducing activity [7] is listed as “showed an erection inducing activity”.

With “Peptide 8: positions 606 to 615 of the human VGF amino acid sequence (YIEHVLLRRP; synthetic Peptide 8, positions 606-615 of human VGF, C-terminal VGF-derived peptide)” the “inhibition of antiserum binding” value [1, 14] was “did not show any inhibition”.

With calcitonin receptor-stimulating peptide the “inhibition of antiserum binding” value [1, 13] was “none of the peptides showed inhibition”.

Molecule H-TLQPPSALRRRHYHHALPPSRHYPGREAQA-OH [Peptide 3 (SEQ ID NO: 2)] has a fold amount required for the same degree of inhibition as Peptides 1 and 2 [12] of 10000 fold.

B1: Peptide 5: positions 554 to 615 in the amino acid sequence of human VGF (peptide)
chain: TLQPPSALRRRHYHHALPPSRHYPGREAQARRAQEEAEAEERRLQEQEELENYIEHVLLRRP
modifications: synthetic Peptide 5, positions 554-615 of human VGF, C-terminal VGF-derived peptide
For B1, the “intracellular calcium concentration in cardiac cells (RLU per second)” value ([2]; 5 μmol/L of peptide) was “increase of intracellular calcium concentration” and the “luminescence in the heart” value [2] was “luminescence was observed”.
